In patent EP0364941A1, “Branched-chain alkyl esters of 2-(4-(2-piperidino ethoxy)benzoyl)benzoic acid, processes for their preparation and their use as spasmolytic agents” (HOECHST AKTIENGESELLSCHAFT, priority 1988, dated 1990):

How the values were obtained:
Type in all cases: in vivo
small intestine [1] = experiment: Motility of the small intestine in the conscious dog; conditions: for Area under the contraction curve, Postdrug 10 min: 10 min postdrug; for Area under the contraction curve, Postdrug 10 min / Area under the contraction curve, Postdrug 20 min / Area under the contraction curve, Postdrug 30 min / Area under the contraction curve, Postdrug 40 min / Area under the contraction curve, Postdrug 50 min / Area under the contraction curve, Postdrug 60 min / Area under the contraction curve, Predrug -20 - 0: phase I and II; for Area under the contraction curve, Postdrug 20 min: 20 min postdrug; for Area under the contraction curve, Postdrug 30 min: 30 min postdrug; for Area under the contraction curve, Postdrug 40 min: 40 min postdrug; for Area under the contraction curve, Postdrug 50 min: 50 min postdrug; for Area under the contraction curve, Postdrug 60 min: 60 min postdrug; for Inhibition Maximal / Inhibition Mean / ED50: phase I+II activity; for Area under the contraction curve, Predrug -20 - 0: predrug baseline -20 - 0 min; for Duration of action: when postdrug values reached 90 % or more of predrug values; for ED50: Canis lupus familiaris, iv, conscious dog, read-out: intravenous IC₅₀-values determined from maximal inhibition
Description: Male dogs (THG Tierhandelsgesellschaft Rodenbach, Hoe:BEAK (Beagle)) weighing 15 - 20 kg were used in all experiments. At least 4 weeks prior to the experiment the dogs had been equipped with miniaturized strain gage force transducers (T1-T3) (2x4 mm), sutured onto the gut at the locations mentioned below. The cables of the transducers were embedded into a cannula which carried the plug for external electric connection. This stainless steel cannula was implanted into the abdominal wall, close below the costal arch. Each transducer was connected to a measuring bridge. The signals were on line stored using a HP 9835 A computer, allowing later analysis of the data. • T1 : Proximal jejunum • T2 : Distal jejunum • T3 : Ileum
(§1) 18 hours prior to the experiment food was withdrawn from the animals, water ad libidum. All experiments started between 08:00 and 09:00 am.
The following motility parameters were determined: The integral under the […] at 10 min intervals (mNx10min) as an index of phase I + II activity. The duration of drug action (min.) The duration of the interdigestive migrating complex (IMC) (min) as a measure of phase III activity.
Test Compound II was given at doses of 0.2 and 0.5 mg/kg i.v. or 5 mg/kg i.g., dissolved in saline, in a volume of 1 ml/kg (i.v.) or 2 ml/kg (i.g.), n = 3 - 6. Control n = 26.
Buscopan was given at doses of 0.3 and 1 mg/kg i.v., dissolved in saline, in a volume of 1 ml/kg, n = 4 - 6. Pitofenone was given at doses of 1 mg/kg i.v., dissolved in saline, in a volume of 1 ml/kg, n = 8.
ID₅₀-values were determined graphically.

large Bowel = experiment: Motility of the large bowel (colonic motor complex) in conscious dogs
Description: Male dogs (THG Tierhandelsgesellschaft Rodenbach, Hoe:BEAK (Beagle)) weighing 15 - 20 kg were used in all experiments.
At least 4 weeks prior the experiment the dogs had been equipped with miniaturised strain gage force transducers (T1-T2) (2x4mm), sutured onto the gut at the locations mentioned below. The cables of the transducers were embedded into a cannula which carried the plug for external electric connection. This stainless steel cannula was implanted into the abdominal wall, close below the costal arch. Each transducer was connected to a measuring bridge. The signals were on line stored using a HP 9835 A computer, allowing later analysis of the data. • T1 : Colon ascendens 10 cm aborafrom the ileoceval valve (ICV) • T2 : Colon transversum 25 cm aborad from the ICV
as §1
The following parameters were determined: The duration of the cycle (min) The duration of the colonic motor complex (CMC) (min) The maximal height of the concentrations (AU: arbitrary units)
Data from the two recording sites (T1-T2) were pooled. […]
For detection of significant differences (p < 0.05) the unpaired t-test was used. Only significant differences were indicated by *.

small intestine [2] = experiment: Antispasmodic activity in anaesthetized dog (carbachol or acetylcholine induced intestinal contractions); conditions: anaesthetised dog
Description: Male mongrel dogs of weight range 10 to 15 kg were anaesthetised with pentobarbitone sodium (35 mg/ kg,i.v.). Slow i.v. infusion of pentobarbitone (5 mg/kg/hour) was given for maintenance anaesthesia. The endotracheal tube was inserted to facilitate spontaneous breathing. Both femoral artery and vein were cannulated respectively for recording blood pressure and administering drugs. After laparotomy, a small portion of small intestine distal to duodenum was isolated and saline filled balloon inserted and the opening was sutured. A fine polyethylene cannula was then inserted into the mesenteric artery which supplies to the area of intestine containing balloon for injection of carbachol or acetylcholine. A Statham pressure transducer was then attached to balloon cannula for recording both circular and longitudinal muscle contractions. All the parameters were recorded on 4 channel Nihon-Kohden recorder. The intestinal contractions were recorded after administering a standard dose of carbachol or acetylcholine (0.5 to 3 µg). Test compounds I and II were given at different doses 3,10 and 20 mg/kg intra-duodenally and spasmolytic activity was assessed at various time intervals. Anti-spasmodic activity was assessed by calculating percent reduction in agonist induced contractions and also noting onset and duration of activity. The test compounds were dissolved in distilled water (1% soln.). Table 3 Test compounds I and II were given at different doses (10, 30, 100, 300 and 1000 µg/kg) intravenously and spasmolytic activity was assessed at different time intervals. Anti-spasmodic activity was assessed by calculating percent reduction in agonist induced contractions. The ID₅₀ value was calculated from the dose response curve.

small intestine [3] = experiment: Gastrointestinal propulsion (charcoal transport) in mice
Description: Ref.: J.M.A. Zwagemakers and V. Claassen, Arzneim-Forsch/-Drug Res. 30 (II) Nr.9, p.1517 (1980).
The test compounds I and II were given orally by gavage in a range of 10 to 100 mg/kg doses 30 min before charcoal suspension (0.2 ml/animal, 10% charcoal in 5% gum acacia) in 18 hrs fasted mice (male or female, weight range 18 to 25 g). 30 min after administration of charcoal animals were killed and the extent of charcoal propulsion in the small intestine was measured. The inhibitory activity of test compound on charcoal transport was assessed as percent inhibition compared to length of intestine. For control group 10 ml/kg of saline was given.

CCCC[N+]1(C)[C@@H]2C[C@@H](OC(=O)[C@H](CO)c3ccccc3)C[C@H]1[C@@H]1O[C@@H]12 (stereo partly shown) [Buscopan]
Area under the contraction curve, Postdrug 10 min (small intestine [1]; 0.3 mg/kg i.v.): 1.78 mN x 10 min | Area under the contraction curve, Postdrug 20 min (small intestine [1]; 0.3 mg/kg i.v.): 1.74 mN x 10 min | Area under the contraction curve, Postdrug 30 min (small intestine [1]; 0.3 mg/kg i.v.): 2.17 mN x 10 min | Area under the contraction curve, Postdrug 40 min (small intestine [1]; 0.3 mg/kg i.v.): 2.15 mN x 10 min | Area under the contraction curve, Postdrug 50 min (small intestine [1]; 0.3 mg/kg i.v.): 1.80 mN x 10 min | Area under the contraction curve, Postdrug 60 min (small intestine [1]; 0.3 mg/kg i.v.): 1.60 mN x 10 min | Inhibition Maximal (small intestine [1]; 0.3 mg/kg i.v.): 29% | Inhibition Mean (small intestine [1]; 0.3 mg/kg i.v.): 23 ± 6% | Area under the contraction curve, Predrug -20 - 0 (small intestine [1]; 0.3 mg/kg i.v.): 2.09 mN x 10 min | Duration of action (small intestine [1]; 0.3 mg/kg i.v.): 20 min | Area under the contraction curve, Postdrug 10 min (small intestine [1]; 1 mg/kg i.v.): 0.85 mN x 10 min | Area under the contraction curve, Postdrug 20 min (small intestine [1]; 1 mg/kg i.v.): 0.86 mN x 10 min | Area under the contraction curve, Postdrug 30 min (small intestine [1]; 1 mg/kg i.v.): 1.23 mN x 10 min | Area under the contraction curve, Postdrug 40 min (small intestine [1]; 1 mg/kg i.v.): 2.03 mN x 10 min | Area under the contraction curve, Postdrug 50 min (small intestine [1]; 1 mg/kg i.v.): 2.09 mN x 10 min | Area under the contraction curve, Postdrug 60 min (small intestine [1]; 1 mg/kg i.v.): 1.99 mN x 10 min | Inhibition Maximal (small intestine [1]; 1 mg/kg i.v.): 58% | Inhibition Mean (small intestine [1]; 1 mg/kg i.v.): 52 ± 6% | Area under the contraction curve, Predrug -20 - 0 (small intestine [1]; 1 mg/kg i.v.): 2.03 mN x 10 min | Duration of action (small intestine [1]; 1 mg/kg i.v.): 30 min | ED50 (small intestine [1]): 0.6 mg/kg | Duration CMC (large Bowel; 3 mg/kg intragastrically): 6 ± 4 min | Duration Cycle (large Bowel; 3 mg/kg intragastrically): 35 ± 19 min | Max.heigth of CMC (large Bowel; 3 mg/kg intragastrically): 35±17 AU | Duration CMC (large Bowel; 10 mg/kg intragastrically): 5 ± 1 min | Duration Cycle (large Bowel; 10 mg/kg intragastrically): 32 ± 5 min | Max.heigth of CMC (large Bowel; 10 mg/kg intragastrically): 35±10 AU | effect on colonic motility (large Bowel; 3 and 10 mg/kg i.g.): no effect

COC(=O)c1ccccc1C(=O)c1ccc(OCCN2CCCCC2)cc1.Cl [Test Compound I, Methyl-2-[4-(2-piperidino-ethoxy)-benzoyl]-benzoate hydrochloride]
Duration (small intestine [2]; 20 mg/kg intra-duodenal): 40 min | On-set (small intestine [2]; 20 mg/kg intra-duodenal): 20 min | Percent Inhibition (small intestine [2]; 20 mg/kg intra-duodenal): 63% | ED50 (small intestine [2]; Canis lupus familiaris, iv, read-out: ID₅₀): 0.14 mg/kg | Duration of action (small intestine [2]; intravenous administration): 10 to 30 min | Percent Inhibition (small intestine [3]; 60 mg/kg p.o.): 24.0 ± 3.0% | Percent Inhibition (small intestine [3]; 100 mg/kg p.o.): 30.0 ± 4.3% | Area under the contraction curve, Postdrug 10 min (small intestine [1]; 1 mg/kg i.v.): 1.58 mN x 10 min | Area under the contraction curve, Postdrug 20 min (small intestine [1]; 1 mg/kg i.v.): 2.01 mN x 10 min | Area under the contraction curve, Postdrug 30 min (small intestine [1]; 1 mg/kg i.v.): 2.59 mN x 10 min | Area under the contraction curve, Postdrug 40 min (small intestine [1]; 1 mg/kg i.v.): 2.29 mN x 10 min | Area under the contraction curve, Postdrug 50 min (small intestine [1]; 1 mg/kg i.v.): 3.16 mN x 10 min | Area under the contraction curve, Postdrug 60 min (small intestine [1]; 1 mg/kg i.v.): 3.64 mN x 10 min | Inhibition Maximal (small intestine [1]; 1 mg/kg i.v.): 47% | Inhibition Mean (small intestine [1]; 1 mg/kg i.v.): 29 ± 7% | Area under the contraction curve, Predrug -20 - 0 (small intestine [1]; 1 mg/kg i.v.): 2.96 mN x 10 min | Duration of action (small intestine [1]; 1 mg/kg i.v.): 40 min | ED50 (small intestine [1]): 1 mg/kg
